Data from PubChem BioAssay (NCI).
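Method: 48-hour compound exposure of cells in 96-well plates, five concentrations, linear interpolation of endpoints. The concentration for 50% growth inhibition is given as GI50. Definition used: TGI = concentration required for complete inhibition of growth.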

Assays:
Assay in all cases: NCI tumour cell line growth inhibition, 48 h
RPMI-8226 leukemia = system: RPMI-8226 leukemia
BT-549 breast = system: BT-549 breast
A549 NSCLC = system: A549 NSCLC
NCI-H23 lung = system: NCI-H23 lung
MCF7 breast = system: MCF7 breast
SK-MEL-2 melanoma = system: SK-MEL-2 melanoma
UACC-257 melanoma = system: UACC-257 melanoma
CCRF-CEM leukemia = system: CCRF-CEM leukemia
UO-31 renal = system: UO-31 renal
SK-MEL-5 melanoma = system: SK-MEL-5 melanoma
NCI-H226 lung = system: NCI-H226 lung
PC-3 prostate = system: PC-3 prostate
MDA-MB-435 = system: MDA-MB-435
HS 578T breast = system: HS 578T breast
786-0 renal = system: 786-0 renal
RXF 393 renal = system: RXF 393 renal
K-562 leukemia = system: K-562 leukemia
NCI/ADR-RES ovarian = system: NCI/ADR-RES ovarian
SW-620 colon = system: SW-620 colon
HOP-92 NSCLC = system: HOP-92 NSCLC
COLO 205 colon = system: COLO 205 colon
OVCAR-3 ovarian = system: OVCAR-3 ovarian
T-47D breast = system: T-47D breast
M14 melanoma = system: M14 melanoma
NCI-H460 lung = system: NCI-H460 lung
EKVX NSCLC = system: EKVX NSCLC
MALME-3M melanoma = system: MALME-3M melanoma
NCI-H522 lung = system: NCI-H522 lung
MOLT-4 leukemia = system: MOLT-4 leukemia
ACHN renal = system: ACHN renal
UACC-62 melanoma = system: UACC-62 melanoma
DU-145 prostate = system: DU-145 prostate
HCT-116 colon = system: HCT-116 colon
HL-60(TB) leukemia = system: HL-60(TB) leukemia
CAKI-1 renal = system: CAKI-1 renal
HCT-15 colon = system: HCT-15 colon
OVCAR-4 ovarian = system: OVCAR-4 ovarian
SF-295 CNS = system: SF-295 CNS
A498 renal = system: A498 renal
SR leukemia = system: SR leukemia
SN12C renal = system: SN12C renal
HCC-2998 colon = system: HCC-2998 colon
TK-10 renal = system: TK-10 renal
SF-268 CNS = system: SF-268 CNS
OVCAR-8 ovarian = system: OVCAR-8 ovarian
OVCAR-5 ovarian = system: OVCAR-5 ovarian
IGROV1 ovarian = system: IGROV1 ovarian
MDA-MB-231 breast = system: MDA-MB-231 breast
KM12 colon = system: KM12 colon
U251 CNS = system: U251 CNS
SF-539 CNS = system: SF-539 CNS
SK-OV-3 ovarian = system: SK-OV-3 ovarian
HOP-62 NSCLC = system: HOP-62 NSCLC
SNB-75 CNS = system: SNB-75 CNS
SK-MEL-28 melanoma = system: SK-MEL-28 melanoma
LOX IMVI melanoma = system: LOX IMVI melanoma
SNB-19 CNS = system: SNB-19 CNS
HT29 colon = system: HT29 colon

Q: Which GI50 (RPMI-8226 leukemia) does the source give for `Cc1ccc(C(SCC(N)C(=O)O)(c2ccc(C)cc2)c2ccc(C)cc2)cc1` (stereo unspecified) here?
A: 2.27 µM

Q: What about the TGI (RPMI-8226 leukemia) of the same compound?
A: 12.5 µM

Q: And the GI50 (BT-549 breast)?
A: 3.33 µM

Q: And the TGI (BT-549 breast)?
A: 20.5 µM

Q: And the GI50 (A549 NSCLC)?
A: 2.62 µM

Q: And the TGI (A549 NSCLC)?
A: 16.8 µM

Q: What about the GI50 (NCI-H23 lung) of the same compound?
A: 4.87 µM

Q: What about the TGI (NCI-H23 lung) of the same compound?
A: > 43.2 µM

Q: And the GI50 (MCF7 breast)?
A: 0.895 µM

Q: And the TGI (MCF7 breast)?
A: 18.4 µM

Q: What about the GI50 (SK-MEL-2 melanoma) of the same compound?
A: 2.72 µM

Q: And the TGI (SK-MEL-2 melanoma)?
A: 20.5 µM

Q: What about the GI50 (UACC-257 melanoma) of the same compound?
A: 6.18 µM

Q: What about the TGI (UACC-257 melanoma) of the same compound?
A: 26.7 µM

Q: What about the GI50 (CCRF-CEM leukemia) of the same compound?
A: 3.08 µM

Q: What about the TGI (CCRF-CEM leukemia) of the same compound?
A: 55.4 µM

Q: What about the GI50 (UO-31 renal) of the same compound?
A: 9.79 µM

Q: And the TGI (UO-31 renal)?
A: 40.4 µM

Q: What about the GI50 (SK-MEL-5 melanoma) of the same compound?
A: 0.907 µM

Q: What about the TGI (SK-MEL-5 melanoma) of the same compound?
A: 14.7 µM

Q: And the GI50 (NCI-H226 lung)?
A: 9.84 µM

Q: What about the TGI (NCI-H226 lung) of the same compound?
A: > 49.8 µM

Q: And the GI50 (PC-3 prostate)?
A: 2.94 µM

Q: And the TGI (PC-3 prostate)?
A: 20.1 µM

Q: And the GI50 (MDA-MB-435)?
A: 0.337 µM

Q: What about the TGI (MDA-MB-435) of the same compound?
A: 1.16 µM

Q: And the GI50 (HS 578T breast)?
A: 0.669 µM

Q: And the TGI (HS 578T breast)?
A: 4.44 µM

Q: What about the GI50 (786-0 renal) of the same compound?
A: 4.93 µM

Q: And the TGI (786-0 renal)?
A: 30.1 µM

Q: And the GI50 (RXF 393 renal)?
A: 1.46 µM

Q: What about the TGI (RXF 393 renal) of the same compound?
A: 14.8 µM

Q: And the GI50 (K-562 leukemia)?
A: 2.96 µM

Q: What about the TGI (K-562 leukemia) of the same compound?
A: 12.3 µM

Q: And the GI50 (NCI/ADR-RES ovarian)?
A: 15 µM

Q: What about the TGI (NCI/ADR-RES ovarian) of the same compound?
A: 53.7 µM

Q: And the GI50 (SW-620 colon)?
A: 1.64 µM

Q: What about the TGI (SW-620 colon) of the same compound?
A: 15.8 µM

Q: And the GI50 (HOP-92 NSCLC)?
A: 2.87 µM

Q: What about the TGI (HOP-92 NSCLC) of the same compound?
A: 17.5 µM

Q: What about the GI50 (COLO 205 colon) of the same compound?
A: 2.14 µM

Q: And the TGI (COLO 205 colon)?
A: 5.62 µM

Q: And the GI50 (OVCAR-3 ovarian)?
A: 2.22 µM

Q: What about the TGI (OVCAR-3 ovarian) of the same compound?
A: 7.39 µM

Q: And the GI50 (T-47D breast)?
A: 3.5 µM

Q: What about the TGI (T-47D breast) of the same compound?
A: 21.9 µM

Q: And the GI50 (M14 melanoma)?
A: 0.729 µM

Q: What about the TGI (M14 melanoma) of the same compound?
A: 2.37 µM

Q: What about the GI50 (NCI-H460 lung) of the same compound?
A: 2.3 µM

Q: What about the TGI (NCI-H460 lung) of the same compound?
A: 12 µM

Q: What about the GI50 (EKVX NSCLC) of the same compound?
A: 4.32 µM

Q: What about the TGI (EKVX NSCLC) of the same compound?
A: 39.4 µM

Q: And the GI50 (MALME-3M melanoma)?
A: 11.6 µM

Q: And the TGI (MALME-3M melanoma)?
A: 26 µM

Q: And the GI50 (NCI-H522 lung)?
A: 1.01 µM

Q: What about the TGI (NCI-H522 lung) of the same compound?
A: 16.7 µM

Q: And the GI50 (MOLT-4 leukemia)?
A: 3.81 µM

Q: And the TGI (MOLT-4 leukemia)?
A: 20.2 µM

Q: What about the GI50 (ACHN renal) of the same compound?
A: 14.5 µM

Q: And the TGI (ACHN renal)?
A: > 68.3 µM

Q: What about the GI50 (UACC-62 melanoma) of the same compound?
A: 1.03 µM

Q: And the TGI (UACC-62 melanoma)?
A: 13.8 µM

Q: What about the GI50 (DU-145 prostate) of the same compound?
A: 2.45 µM

Q: What about the TGI (DU-145 prostate) of the same compound?
A: 5.59 µM

Q: What about the GI50 (HCT-116 colon) of the same compound?
A: 0.829 µM

Q: What about the TGI (HCT-116 colon) of the same compound?
A: 13 µM

Q: And the GI50 (HL-60(TB) leukemia)?
A: 2.53 µM

Q: And the TGI (HL-60(TB) leukemia)?
A: 8.09 µM

Q: And the GI50 (CAKI-1 renal)?
A: 2.74 µM

Q: What about the TGI (CAKI-1 renal) of the same compound?
A: 12.5 µM

Q: What about the GI50 (HCT-15 colon) of the same compound?
A: 4.54 µM

Q: And the TGI (HCT-15 colon)?
A: 27.9 µM

Q: And the GI50 (OVCAR-4 ovarian)?
A: 11.3 µM

Q: And the TGI (OVCAR-4 ovarian)?
A: > 48.3 µM

Q: What about the GI50 (SF-295 CNS) of the same compound?
A: 1.29 µM

Q: What about the TGI (SF-295 CNS) of the same compound?
A: 10.3 µM

Q: And the GI50 (A498 renal)?
A: 4.04 µM

Q: What about the TGI (A498 renal) of the same compound?
A: 14.6 µM

Q: And the GI50 (SR leukemia)?
A: 1.92 µM

Q: What about the TGI (SR leukemia) of the same compound?
A: 6.91 µM

Q: What about the GI50 (SN12C renal) of the same compound?
A: 2.74 µM

Q: What about the TGI (SN12C renal) of the same compound?
A: 18.4 µM

Q: What about the GI50 (HCC-2998 colon) of the same compound?
A: 2.5 µM

Q: And the TGI (HCC-2998 colon)?
A: 11 µM

Q: What about the GI50 (TK-10 renal) of the same compound?
A: 8.31 µM

Q: What about the TGI (TK-10 renal) of the same compound?
A: 22.6 µM

Q: And the GI50 (SF-268 CNS)?
A: 1.89 µM

Q: And the TGI (SF-268 CNS)?
A: 19.5 µM

Q: What about the GI50 (OVCAR-8 ovarian) of the same compound?
A: 2.36 µM

Q: What about the TGI (OVCAR-8 ovarian) of the same compound?
A: 17.4 µM

Q: What about the GI50 (OVCAR-5 ovarian) of the same compound?
A: 9.2 µM

Q: And the TGI (OVCAR-5 ovarian)?
A: > 48.6 µM

Q: And the GI50 (IGROV1 ovarian)?
A: 10.3 µM

Q: And the TGI (IGROV1 ovarian)?
A: 29.5 µM

Q: And the GI50 (MDA-MB-231 breast)?
A: 1.93 µM

Q: And the TGI (MDA-MB-231 breast)?
A: 7.77 µM

Q: And the GI50 (KM12 colon)?
A: 2.26 µM

Q: And the TGI (KM12 colon)?
A: 12.4 µM

Q: And the GI50 (U251 CNS)?
A: 1.71 µM

Q: What about the TGI (U251 CNS) of the same compound?
A: 16.8 µM

Q: What about the GI50 (SF-539 CNS) of the same compound?
A: 1.22 µM

Q: What about the TGI (SF-539 CNS) of the same compound?
A: 7.5 µM

Q: And the GI50 (SK-OV-3 ovarian)?
A: 1 µM

Q: And the TGI (SK-OV-3 ovarian)?
A: 15.3 µM

Q: And the GI50 (HOP-62 NSCLC)?
A: 6.52 µM

Q: What about the TGI (HOP-62 NSCLC) of the same compound?
A: 22.3 µM

Q: And the GI50 (SNB-75 CNS)?
A: 6.69 µM

Q: What about the TGI (SNB-75 CNS) of the same compound?
A: > 38.2 µM

Q: And the GI50 (SK-MEL-28 melanoma)?
A: 7.47 µM

Q: What about the TGI (SK-MEL-28 melanoma) of the same compound?
A: 22.7 µM

Q: And the GI50 (LOX IMVI melanoma)?
A: 7.16 µM

Q: And the TGI (LOX IMVI melanoma)?
A: 20.2 µM

Q: What about the GI50 (SNB-19 CNS) of the same compound?
A: 4.97 µM

Q: And the TGI (SNB-19 CNS)?
A: 30.2 µM

Q: And the GI50 (HT29 colon)?
A: 3.55 µM

Q: What about the TGI (HT29 colon) of the same compound?
A: > 34.8 µM
